From ChEMBL document CHEMBL2029331, “Red fluorescent scaffold for highly sensitive protease activity probes” (Bioorg Med Chem Lett, 2012)
The source made the active and inactive calls. The rule behind the calls is not given here.

Key:
[1] = target: Leucyl-cystinyl aminopeptidase (Homo sapiens) (UniProt Q9UIQ6); assay: Activity of leucine aminopeptidase after 2.5 hrs by spectrophotometry
Caspase-3 (Homo sapiens) [2] = target: T1, Caspase-3 (Homo sapiens) (UniProt P42574); assay: Activity of caspase3 assessed as SiR600 release by measuring increase in fluorescence intensity at 2 uM after 10 hrs by FRET assay relative to control
T1 sequence (whole entry): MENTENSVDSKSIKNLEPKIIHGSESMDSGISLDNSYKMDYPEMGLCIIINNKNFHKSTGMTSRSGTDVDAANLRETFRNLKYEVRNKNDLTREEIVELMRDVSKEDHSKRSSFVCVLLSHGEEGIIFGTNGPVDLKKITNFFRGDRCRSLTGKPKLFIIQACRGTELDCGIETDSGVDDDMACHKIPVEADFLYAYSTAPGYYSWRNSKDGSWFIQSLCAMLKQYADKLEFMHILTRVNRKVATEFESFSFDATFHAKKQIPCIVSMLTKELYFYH

Caspase-3 (Homo sapiens) [3] = target: T1, Caspase-3 (Homo sapiens); assay: Activity of caspase3 assessed as Kcat/Km ratio after 10 hrs by spectrophotometry relative to Ac-DEVD-AMC

Leucyl-cystinyl aminopeptidase (Homo sapiens), sequence (Q9UIQ6 whole entry): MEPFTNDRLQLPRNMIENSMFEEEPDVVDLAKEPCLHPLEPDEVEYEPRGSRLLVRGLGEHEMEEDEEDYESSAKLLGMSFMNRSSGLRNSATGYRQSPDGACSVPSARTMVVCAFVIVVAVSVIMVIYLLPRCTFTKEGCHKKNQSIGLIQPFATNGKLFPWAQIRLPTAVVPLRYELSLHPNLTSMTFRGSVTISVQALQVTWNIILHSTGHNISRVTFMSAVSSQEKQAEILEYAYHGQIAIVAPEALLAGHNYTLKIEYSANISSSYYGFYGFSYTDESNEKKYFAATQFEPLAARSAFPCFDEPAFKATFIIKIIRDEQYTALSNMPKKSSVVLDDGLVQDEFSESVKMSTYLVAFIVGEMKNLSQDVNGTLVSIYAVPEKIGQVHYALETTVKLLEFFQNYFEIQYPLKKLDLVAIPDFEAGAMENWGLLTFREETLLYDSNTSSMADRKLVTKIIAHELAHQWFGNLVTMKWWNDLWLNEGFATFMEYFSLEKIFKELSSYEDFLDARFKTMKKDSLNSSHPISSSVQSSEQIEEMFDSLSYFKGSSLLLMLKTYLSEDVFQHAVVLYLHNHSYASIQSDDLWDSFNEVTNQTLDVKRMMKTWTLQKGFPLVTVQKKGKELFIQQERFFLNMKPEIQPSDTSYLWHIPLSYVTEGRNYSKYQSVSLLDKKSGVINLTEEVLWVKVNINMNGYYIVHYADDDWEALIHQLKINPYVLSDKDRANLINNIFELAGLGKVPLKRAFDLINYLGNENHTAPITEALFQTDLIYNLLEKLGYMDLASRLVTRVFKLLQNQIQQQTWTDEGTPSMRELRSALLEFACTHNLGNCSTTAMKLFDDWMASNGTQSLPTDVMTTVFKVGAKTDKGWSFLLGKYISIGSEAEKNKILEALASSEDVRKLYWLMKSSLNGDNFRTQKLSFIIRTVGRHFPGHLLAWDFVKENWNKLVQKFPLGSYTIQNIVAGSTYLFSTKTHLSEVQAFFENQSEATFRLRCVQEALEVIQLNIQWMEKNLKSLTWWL

In the case of Cc1ccccc1C1=C2C=CC(=N)C=C2[Si](C)(C)c2cc(NC(=O)[C@H](CC(=O)O)NC(=O)[C@@H](NC(=O)[C@H](CCC(=O)O)NC(=O)[C@H](CC(=O)O)NC(=O)OCc3ccccc3)C(C)C)ccc21, the Activity [1] is reported as “Active”, the fold change (FC) (Caspase-3 (Homo sapiens) [2]) is reported as 432 and the fold change (FC) (Caspase-3 (Homo sapiens) [3]) is reported as 40.
